Experimental data as given in patent US20090042901A1, “AGENT FOR PREVENTION/THERAPY OF DISEASE CAUSED BY KERATINOCYTE GROWTH” (KOWA CO., LTD., priority 2005, published 2009).
pIC50: −log10 of the molar value. Read-outs that look alike come from different tables or passages of the source.

Experiments:
VCAM-1 expression = VCAM-1 expression inhibitory activity in TNFα-stimulated HUVEC; type: cell-based; settings: Homo sapiens, TNFα 10 ng/mL, 4.5 hours, read-out: VCAM-1 expression inhibitory action IC50
Experimental: Human umbilical vein endothelial cells (HUVEC) (Sanko Junyaku Co., Ltd.) were suspended in EGM-2 medium (Sanko Junyaku Co., Ltd.) at a concentration of 5×10^4 cells/mL, and were inoculated on a 96-well plate (Corning Corp.) at a concentration of 1×10^4 cells/well. The cells were cultured at 37° C. in the presence of 5% CO2 for 4 days, then 100 μL of the medium was removed, and 25 μL each of the substance under test and TNFα (final concentration 10 ng/mL, PeproTech, Inc.) were added. After incubating the cells for 4.5 hours at 37° C., the medium was removed, and each well was washed once with 100 μL of Hank's Balanced Salt Solution containing 0.5% bovine serum albumin and 0.02% sodiumazide (HBSS/BSA). Subsequently, 30 μL of a blocking solution (1% whole goat serum (ICN Biomedicals, Inc.)/HBSS/BSA) was added, and the plate was left to stand for 30 minutes on the ice. After washing once with 100 μL of HBSS/BSA, 1 μg/mL of anti-human VCAM-1 antibody (Genzyme-Techne, Inc.) was added to each well in an amount of 30 μL, and the plate was incubated on the ice for 1 hour. After washing three times with HBSS/BSA (200 μL), peroxidase-labeled goat anti-mouse IgG antibody (Pierce Biotechnology, Inc.) diluted 2000-folds with HBSS/BSA was added in an amount of 30 μL/well, and was allowed to react for 1 hour. After washing 5 times with HBSS/BSA as described above, 100 μL/well of TMB substrate (Moss Inc.) was added, an enzymatic reaction was allowed to proceed for 15 to 30 minutes at 25° C., and then 1 mol/L sulfuric acid was added in an amount of 25 μL/well to stop the reaction. The absorbance at 492 nm was measured using a reference wavelength of 620 nm and using a 96-well plate spectrophotometer, Multiscan MS-UV (Labsystems, Inc.). The inhibitory rate was determined by taking the absorbance for the case of TNFα stimulation without drug addition, as 100%. In addition, the measurement was performed three times for each group.

[1] = system: Normal human keratinocytes (newborn infant foreskin-derived epidermal keratinocyte); assay: Growth of normal human keratinocytes (H3-thymidine uptake); type: cell-based; settings: for pIC50: Homo sapiens, Keratinocyte, H3-thymidine uptake, 22 h + 2 h culture, 0.01 to 10 μM, read-out: Human keratinocyte growth inhibition IC50
Experimental: Normal human keratinocytes (purchased from Kurabo Industries, Ltd.) were inoculated on a 48-well plate (Coster Corp.) at a concentration of 4×10^4 cells/well/500 μL, and were cultured overnight at 37° C. in the presence of 5% CO2. A compound of the present invention or activated vitamin D3 (Calcitriol; Wako Pure Chemical Industries, Ltd.) was added to a final concentration of 0.01 to 10 μM, and the cells were cultured for 22 hours. H^3-thymidine (Amersham plc.) was added, and the cells were incubated for another 2 hours. Subsequently, the cells were recovered after washing, and in a liquid scintillation counter (Packard Instrument Company, Inc.), the radioactivity taken up by the cells was measured. The results are presented as a ratio of the radioactivity taken up by the cells upon drug addition, with respect to the radioactivity of the case with no drug addition (Control), which was taken as 100%. The IC50 value, which is the concentration of the drug for inhibiting the uptake of radioactivity to 50% with respect to the control, was lower in the case of any of the Compounds 1 to 8 than in the case of Calcitriol.

[2] = system: TPA-stimulated SKH1-hrBR-Hairless mouse; assay: Skin thickening in TPA-stimulated hairless mouse; type: in vivo; settings: dorsal application of 50 μL after 10 nmol TPA, measured after 24 hours (FIG. 1)
Experimental: As an animal model for psoriasis, hairless mice stimulated with 12-O-tetradecanoylphorbol-13-acetate (hereinafter, referred to as TPA) were used (Sato, et al., Dermatology (1996) 192, 233-238). That is, on the dorsal side of a 7 to 8 weeks old female SKH1-hrBR-Hairless mouse (Charles River Laboratories Japan, Inc.), 10 nmol of TPA dissolved in acetone was applied, and then 50 μL of either the drug dissolved in acetone or Bonalfa (registered trademark) High (Teijin Pharma, Ltd.) was applied. After 24 hours, the thickness of the skin on the dorsal side was measured using a dial thickness gauge (Peacock G-1A, Ozaki MFG. Co., Ltd.), and the difference between the measured skin thickness and the skin thickness measured before TPA application was determined. The thickening of the skin thickness was suppressed by the application of the activated vitamin D3 preparation (Bonalfa (registered trademark) High). Also, the thickening of the skin thickness was suppressed by the application of the Compound 4.

Row | SMILES | pIC50 (VCAM-1 expression) | pIC50 ([1]; 24 h) | Thickening of the skin thickness [2] | pIC50 [1] | Efficacy relative to Calcitriol (keratinocyte growth inhibition IC50) ([1]; compared with Calcitriol)
1 | COc1cc(-c2cc(CN3CCC(N(C)Cc4ccnc(-c5cc(OC)c(OC)c(OC)c5)c4)CC3)ccn2)cc(OC)c1OC [Compound 1] | 7.10 | 7.18 |  |  | 
2 | COc1cc(-c2cncc(CN(c3ccc(SC)cc3)C3CCN(Cc4ccnc(-c5cc(OC)c(OC)c(OC)c5)c4)CC3)c2)cc(OC)c1OC [Compound 2] | 8.30 | 7.36 |  |  | 
3 | COc1cc(OC)cc(N(Cc2ccnc(-c3cc(OC)c(OC)c(OC)c3)c2)C2CCN(Cc3ccnc(-c4cc(OC)c(OC)c(OC)c4)c3)CC2)c1 [Compound 3] |  | 7.31 |  |  | 
4 | COc1ccc(N(Cc2ccnc(-c3cc(OC)c(OC)c(OC)c3)c2)C2CCN(Cc3ccnc(-c4cc(OC)c(OC)c(OC)c4)c3)CC2)cc1 [Compound 4] | 7.70 | 6.61 | suppressed | 6.61 | about 8 times
